Reference: PMC4954776 (Nature chemical biology, 2013)
One block for each compound: values may come before it.

Key:
[1] = test system: RAF family members (ARAF, BRAF, CRAF, KSR1, KSR2) kinase domain dimers; assay: Panel of RAF dimerization BRET biosensors; assay type: cell-based; conditions: for RAFKD dimer induction profile across biosensor panel: dose-response, BRAFKD and CRAFKD acceptor probes, Fig. 2c; for induction of RAF dimerization in kinase inhibitor library screen: collection of 184 compounds, Fig. 5a
[2] = Solubility in aqueous solution; assay type: physicochemical
[3] = molecular target: T1, PERK kinase domain dimerization (Mus musculus, UniProt Q9Z2B5, DEL661-875); assay: Sedimentation velocity analytical ultracentrifugation of PERK kinase domain; assay type: binding, Murine; conditions: saturating concentrations; 40 μM inhibitor, 500 μM ADP with 2 mM MgCl2
T1 sequence (Q9Z2B5 with tags, fused parts or gaps DEL661-875): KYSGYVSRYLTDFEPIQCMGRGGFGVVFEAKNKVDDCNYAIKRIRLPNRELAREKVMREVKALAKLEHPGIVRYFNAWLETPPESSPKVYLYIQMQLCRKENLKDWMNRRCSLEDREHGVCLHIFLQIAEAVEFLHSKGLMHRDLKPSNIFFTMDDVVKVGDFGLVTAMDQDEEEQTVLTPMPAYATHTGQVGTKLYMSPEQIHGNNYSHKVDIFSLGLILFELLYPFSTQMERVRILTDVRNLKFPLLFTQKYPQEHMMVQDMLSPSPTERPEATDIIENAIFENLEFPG

[4] = molecular target: BRAF kinase domain (residues 444 to 723, BRAF16mut) dimerization (Homo sapiens, UniProt P15056, A688R/F667E/I543A/I544S/I551K/K630S/K723G/L588N/L706S/L716E/P722S/Q562R/Q709R/S713E/Y673S); assay type: binding; conditions: 40 μM inhibitor, or 200 μM AMP-PNP / ADP with 200 μM MgCl2; Fig. 5e
[5] = test system: ERK phosphorylation; assay: ERK phosphorylation in RAF-expressing HEK293T cells; assay type: cell-based; conditions: 2 μM, Fig. 4f
[6] = molecular target: CRAF homodimers (Homo sapiens, UniProt P04049); assay: BRET biosensor CRAF homodimers; assay type: cell-based; conditions: Fig. 2c
[7] = molecular target: BRAFKD/BRAFKD (RlucII-BRAFKD-CAAX / GFP10-BRAFKD-CAAX) (Homo sapiens, UniProt P15056); assay: BRET titration curves, BRAFKD homodimerization biosensor; assay type: cell-based; conditions: Fig. 1c
[8] = molecular target: BRAFKD F595R (Homo sapiens, UniProt P15056, F595R); assay: BRET saturation curves, BRAF R spine mutant; assay type: cell-based; conditions: Fig. 6c
[9] = molecular target: BRAFKD T529M / BRAFKD T529M (Homo sapiens, UniProt P15056, T529M); assay: BRET dose-response, BRAFKD T529M gatekeeper mutant homodimerization; assay type: cell-based; conditions: Fig. 4g
[10] = molecular target: BRAF/CRAF dimers (Homo sapiens, UniProt P04049+P15056); assay: Co-immunoprecipitation of full-length GFP-CRAF and Flag-BRAF; assay type: cell-based; conditions: SB202190 and SB203580 10 μM; Fig. 4d
[11] = molecular target: BRAF/BRAF dimers (Homo sapiens, UniProt P15056); assay: Co-immunoprecipitation of full-length BRAF/BRAF dimers; assay type: cell-based; conditions: 10 μM; Fig. 4e
[12] = molecular target: KSR1KD / MEK1 (Homo sapiens, UniProt Q8IVT5); assay: BRET selectivity assay, KSR1KD/MEK1 pair; assay type: cell-based; conditions: 10 μM; Fig. 4b
[13] = molecular target: T2, CRAFKD / BRAFKD (Homo sapiens, UniProt P04049+P15056); assay: BRET dose-response, CAAX-boxed CRAFKD/BRAFKD biosensor; assay type: cell-based; conditions: 10 μM; Fig. 4b
[14] = molecular target: T2, CRAFKD / BRAFKD; assay: High-throughput chemical screen with CRAFKD/BRAFKD biosensor; assay type: cell-based; conditions: 10 μM screening concentration; Fig. 4a
[15] = molecular target: BRAF/KSR1 dimers (Homo sapiens, UniProt P15056+Q8IVT5); assay: BRET biosensor BRAF/KSR1 dimers; assay type: cell-based; conditions: Fig. 2c
[16] = molecular target: BRAFKD WT / BRAFKD R509H (Homo sapiens, UniProt P15056, R509H); assay type: cell-based; conditions: 33 nM; Fig. 1e
[17] = molecular target: BRAFKD WT / BRAFKD WT (Homo sapiens, UniProt P15056); assay type: cell-based; conditions: 33 nM; Fig. 1e

Sequence of CRAF homodimers (P04049 340-648): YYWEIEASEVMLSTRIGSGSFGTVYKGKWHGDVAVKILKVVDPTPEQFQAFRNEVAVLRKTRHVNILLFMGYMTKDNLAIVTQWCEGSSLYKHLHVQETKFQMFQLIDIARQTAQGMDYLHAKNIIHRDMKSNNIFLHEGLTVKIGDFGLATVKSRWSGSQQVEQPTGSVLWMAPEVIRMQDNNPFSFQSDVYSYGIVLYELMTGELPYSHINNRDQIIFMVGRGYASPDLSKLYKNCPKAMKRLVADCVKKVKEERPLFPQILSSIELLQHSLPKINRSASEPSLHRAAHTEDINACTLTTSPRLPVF
Sequence of CRAF homodimers (P04049 340-648): as above
Sequence of KSR1KD / MEK1 (Q8IVT5 602-921): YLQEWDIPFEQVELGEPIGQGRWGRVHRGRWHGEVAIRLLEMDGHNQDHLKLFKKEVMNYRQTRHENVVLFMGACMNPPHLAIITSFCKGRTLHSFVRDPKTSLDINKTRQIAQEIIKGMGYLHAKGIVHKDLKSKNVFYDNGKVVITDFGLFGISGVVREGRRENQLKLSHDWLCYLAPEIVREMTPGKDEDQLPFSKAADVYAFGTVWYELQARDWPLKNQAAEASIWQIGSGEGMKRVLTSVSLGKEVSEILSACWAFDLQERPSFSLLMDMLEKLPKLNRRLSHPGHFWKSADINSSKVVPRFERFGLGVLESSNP
Sequence of KSR1KD / MEK1 (Q02750 whole entry partner): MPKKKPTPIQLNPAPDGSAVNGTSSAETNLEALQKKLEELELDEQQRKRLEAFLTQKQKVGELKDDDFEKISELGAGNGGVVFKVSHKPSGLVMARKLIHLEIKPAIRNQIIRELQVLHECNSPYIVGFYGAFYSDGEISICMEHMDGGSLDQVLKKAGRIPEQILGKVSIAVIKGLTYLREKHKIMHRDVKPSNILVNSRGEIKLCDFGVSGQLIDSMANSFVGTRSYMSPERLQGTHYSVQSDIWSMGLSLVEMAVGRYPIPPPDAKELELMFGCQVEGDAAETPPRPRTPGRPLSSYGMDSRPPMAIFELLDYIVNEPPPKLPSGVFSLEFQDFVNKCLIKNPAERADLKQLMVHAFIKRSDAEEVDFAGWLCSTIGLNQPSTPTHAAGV

SMILES: Nc1ncnc2c1ncn2[C@@H]1O[C@H](COP(=O)(O)OP(=O)(O)O)[C@@H](O)[C@H]1O [ADP]
effect on PERK kinase domain dimerization [3]: weakly promoted dimerization
effect on BRAF kinase domain dimerization relative to apo state [4]: inhibited dimer formation

SMILES: C[S+]([O-])c1ccc(-c2nc(-c3ccncc3)c(-c3ccc(F)cc3)[nH]2)cc1 (centres unmarked) [SB203580]
ERK activity in RAF transfected cells [5]: stimulated ERK activity

SMILES: Cc1ccc(NC(=O)c2cccc(C(C)(C)C#N)c2)cc1Nc1ccc2ncn(C)c(=O)c2c1 [AZ-628]
RAFKD dimer induction profile across biosensor panel [1]: strong and broad inducers
induction of CRAF homodimers [6]: strongly promoted
effect on BRET50 in titration experiments [7]: significantly reduced
dimerization of BRAF R spine mutant (F595R), BRET saturation curves [8]: promote dimerization

SMILES: Cc1nc(Nc2ncc(C(=O)Nc3c(C)cccc3Cl)s2)cc(N2CCN(CCO)CC2)n1 [Dasatinib]
induction of RAF dimerization in kinase inhibitor library screen [1]: significant inducers of RAF dimerization

SMILES: OCCn1cc(-c2ccc3c(c2)CC/C3=N\O)c(-c2ccncc2)n1 [GDC-0879]
induction of BRAF/KSR1 dimers [15]: strongly induced
RAFKD dimer induction profile across biosensor panel [1]: strong and broad inducers
response of R509H mutant biosensor to drug [16]: insensitive
time at which BRET induction plateaued [17]: ≤ 60 min
time at which activity (BRET induction) could first be detected [17]: 5 min
effect on BRET50 in titration experiments [7]: significantly reduced

SMILES: Nc1ncnc2c1ncn2[C@@H]1O[C@H](COP(=O)(O)OP(=O)(O)NP(=O)(O)O)[C@@H](O)[C@H]1O [AMP-PNP]
effect on BRAF kinase domain dimerization relative to apo state [4]: inhibited dimer formation

Continued, in another order:

RAFKD dimer induction profile across biosensor panel [1]: relatively weak RAFKD dimer inducers
solubility in aqueous solution [2]: limited solubility
SMILES: CNC(=O)c1cc(Oc2ccc(NC(=O)Nc3ccc(Cl)c(C(F)(F)F)c3)cc2)ccn1 [Sorafenib]

effect on PERK kinase domain dimerization [3]: potently promotes
SMILES: Cn1cc(-c2ccc3c(c2)CCN3C(=O)Cc2cccc(C(F)(F)F)c2)c2c(N)ncnc21 [GSK2606414, 7-Methyl-5-(1-{[3-(trifluoromethyl)phenyl]acetyl}-2,3-dihydro-1H-indol-5-yl)-7H-p yrrolo[2,3-d]pyrimidin-4-amine]

effect of T529M gatekeeper mutant on inhibitor-induced BRAFKD homodimerization [9]: reduces
BRAF/CRAF dimerization by co-immunoprecipitation [10]: increased BRAF/CRAF dimerization
BRAF homodimerization by co-immunoprecipitation [11]: induced BRAF homodimerization
effect on BRET produced by the KSR1KD/MEK1 pair [12]: does not alter
effect on CRAFKD/BRAFKD BRET signal [13]: induces
effect on BRAF kinase domain dimerization relative to apo state [4]: promoted dimerization
rank among inducers of CRAFKD/BRAFKD dimerization in HTS [14]: most potent inducer
SMILES: Oc1ccc(-c2nc(-c3ccncc3)c(-c3ccc(F)cc3)[nH]2)cc1 [SB202190]
ERK activity in RAF transfected cells [5]: stimulated ERK activity

induction of RAF dimerization in kinase inhibitor library screen [1]: significant inducers of RAF dimerization
SMILES: Cc1cn(-c2cc(NC(=O)c3ccc(C)c(Nc4nccc(-c5cccnc5)n4)c3)cc(C(F)(F)F)c2)cn1 [Nilotinib]

RAFKD dimer induction profile across biosensor panel [1]: relatively weak RAFKD dimer inducers
SMILES: CCCS(=O)(=O)Nc1ccc(F)c(C(=O)c2c[nH]c3ncc(Cl)cc23)c1F [PLX4720]

effect on PERK kinase domain dimerization [3]: strongly promoted dimerization
SMILES: Cn1cc(-c2ccc3c(c2)CCN3C(=O)Cc2cc(F)cc(C(F)(F)F)c2)c2c(N)ncnc21 [close structural analog of GSK2606414, 5-(1-{[3-Fluoro-5-(trifluoromethyl)phenyl]acetyl}-2,3-dihydro-1H-indol-5-yl)-7-methyl-7H-pyrrolo[2,3-d]pyrimidin-4-amine]
